Values quoted from earlier work, collected in patent publication US20120263802A1 (priority 2003, published 2012).

Tests used:
range of models = details: once-daily oral administration; Wedge et al, Proc. Am. Assoc. Canc. Res. 2001; 42: abstract 3126

## COc1cc2c(Nc3ccc(Br)cc3F)ncnc2cc1OCC1CCN(C)CC1 [ZD6474, 4-(4-bromo-2-fluoroanilino)-6-methoxy-7-(1-methylpiperidin-4-ylmethoxy)quinazoline]
Range of models
  anti-tumour activity: broad-spectrum anti-tumour activity
VEGF RTK
  inhibition of VEGF RTK: potent inhibitor
